Reference: patent publication US5698590A, “Prostaglandin derivatives” (Ono Pharmaceutical Co., Ltd., priority 1995, dated 1997)

Tests used:
[1] = system: cutaneous blood flow of the dorsum pedis; assay: blood flow increasing effect in anesthetized rats (laser-Doppler flowmetry, AUC); assay type: in vivo, Male rats; set-up: Blood flow increasing effect: Total AUC: unit not given here; conditions: for Blood flow increasing effect: Total AUC / Blood flow increasing effect: Dose (A) required to obtain AUC = 771: rat; for Blood flow increasing effect: Total AUC: injection via jugular vein; for Blood flow increasing effect: Dose (A) required to obtain AUC = 771: AUC 771 = effect of PGE1 lipid emulsion 5 μg/kg i.v.; for Blood flow increasing effect: Relative activity (X): relative to comparative compound = 1, from Dose (A)
Description: (§1) Male rats weighing 200-350 g were anesthetized with urethane (25% urethane, 6 ml/kg, s.c.). The carotid artery and jugular vein were cannulated with polyethylene tubes for measurement of blood pressure and for drug injection, respectively. Blood pressure was obtained with a disposable pressure transducer kit (Spectramed, Ltd) and recorded with a recticoder (model RJG-4128, Nihon kohden, Ltd). Also, blood flow was monitored as cutaneous blood flow of the dorsum pedis using an attachment-type laser-Doppler flowmeter (model ALF21, Advance, Ltd). Measurements were taken until the values recovered to the level observed before injection of drugs. Injection time was about 10 seconds. The hypotensive effect and blood flow increasing effect were calculated as the maximum hypotensive activity (mmHg) and the area under the curve (AUC) after injection of drugs, respectively.
(§2) The results were represented by the dose required to obtain an effective increase in blood flow (main effect), and by the hypotensive effect (side effect) at the same dose.
(§3) The compounds of the present invention were administered in the form of liposome formulations (as prepared in Example 3 below). […] The solubility of this comparative compound was very low; thus, administration without solubilizer was impossible.
The effectiveness of increasing blood flow was determined by the following method.
(§4) The dry lipid film was dispersed into a 10% maltose solution (3 ml) by using a vortex mixer (type S-100, Taiyokagaku Inc.) and an aqueous suspension with a drug concentration of 1, 3, 10, or 30 μg/ml was obtained. The obtained multilamellar liposome solutions (3 ml) were transferred into plastic tubes and then sonicated with a probe sonicator (type: SONIFIER cell disruptor 200, Branson) at the condition of 50% pulsed operation for 15 minutes. The sonicated solutions were passed through a membrane filter with a pore diameter of 0.2 μm to remove titanium particles and liposome formulations with a mean diameter of 40-70 nm were formed.

blood pressure = assay: hypotensive effect in anesthetized rats (maximum hypotensive activity); assay type: in vivo, Male rats; conditions: for Hypotensive effect: Maximum hypotension on dose (A): at dose (A) required to obtain AUC = 771; for Hypotensive effect: Maximum hypotension on dose (A) / Hypotensive effect: Maximum hypotension: rat; for Hypotensive effect: Maximum hypotension: injection via jugular vein; for Hypotensive effect: Relative activity (X): relative to comparative compound = 1, at dose (A)
Description: as §1, §2, §3, §4

[2] = solubility of comparative compound; assay type: physicochemical; conditions: administration without solubilizer was impossible

| solubility [2] | SMILES | Blood flow increasing effect: Total AUC ([1]; dose 1 μg/kg) | Blood flow increasing effect: Total AUC ([1]; dose 3 μg/kg) | Blood flow increasing effect: Total AUC ([1]; dose 10 μg/kg) | Blood flow increasing effect: Dose (A) required to obtain AUC = 771 [1] | Blood flow increasing effect: Relative activity (X) [1] | Hypotensive effect: Maximum hypotension on dose (A) (blood pressure) | Hypotensive effect: Maximum hypotension (blood pressure; dose 1 μg/kg) | Hypotensive effect: Maximum hypotension (blood pressure; dose 3 μg/kg) | Hypotensive effect: Maximum hypotension (blood pressure; dose 10 μg/kg) | Hypotensive effect: Relative activity (X) (blood pressure) | Blood flow increasing effect: Total AUC ([1]; dose 30 μg/kg) | Hypotensive effect: Maximum hypotension (blood pressure; dose 30 μg/kg) |
| --- | --- | --- | --- | --- | --- | --- | --- | --- | --- | --- | --- | --- | --- |
| – | CCCCCCCCCCCC(=O)OCC(COC(=O)CCCCCCCCCCC)OC(=O)CCCCCC[C@H]1C(=O)C[C@@H](O)[C@@H]1/C=C/[C@@H](O)CCCCC [Example 1, PGE1 1,3-bis (dodecanoyloxy)-2-propyl ester] | 116 | 483 | 2566 | 3.6 µg/kg | 6.6 | 2.2 mmHg | 0 mmHg | 1 mmHg | 9 mmHg | 0.31 | – | – |
| very low | CCCCCCCCCCCCCCCC(=O)OCC(COC(=O)CCCCCCCCCCCCCCC)OC(=O)CCCCCC[C@H]1C(=O)C[C@@H](O)[C@@H]1/C=C/[C@@H](O)CCCCC [Comparative compound, PGE1 1,3-bis(palmitoyloxy)-2-propyl ester, reference compound] | – | 350 | 710 | 23.6 µg/kg | 1 | 7.1 mmHg | – | 1 mmHg | 6 mmHg | 1 | 830 | 8 mmHg |
| – | CCCCCC(=O)OCC(COC(=O)CCCCC)OC(=O)CCCCCC[C@H]1C(=O)C[C@@H](O)[C@@H]1/C=C/[C@@H](O)CCCCC [Example 2, PGE1 1,3-bis (hexanoyloxy)-2-propyl ester] | 185 | 1206 | 3919 | 2.2 µg/kg | 10.7 | 6.7 mmHg | 4 mmHg | 9 mmHg | 19 mmHg | 0.94 | – | – |
